Among the data in PubChem BioAssay (NCI) are TGI and GI50 values, retold here.

Test systems include NCI-H460 lung; SF-268 CNS; UACC-62 melanoma; DU-145 prostate; MCF7 breast; OVCAR-3 ovarian; HCT-15 colon; NCI-H226 lung; M14 melanoma; A549 NSCLC.
Assay in all cases: NCI-60 cell line screen, 48 h

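96-well plates; 48 h exposure; 5 concentrations. Endpoints by linear interpolation between flanking doses. Not reached: highest tested concentration assigned. GI50 is the concentration that inhibits growth by half. TGI: concentration producing complete growth inhibition.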

As to `CC1=CC(=O)C[C@]2(C)[C@@H](O)CC(C(C)CO)C[C@@H]12` (stereo not given in full), the TGI with NCI-H460 lung, in the assay on SF-268 CNS, in the assay on UACC-62 melanoma, in the assay on DU-145 prostate, in the assay with MCF7 breast and in the assay on OVCAR-3 ovarian was above 100 µM in each case. Also, the TGI in the assay with HCT-15 colon, in the assay on NCI-H226 lung, with M14 melanoma and with A549 NSCLC was above 100 µM throughout.

Take `Nc1cc(N)c2nc(-c3ccccc3)c(Sc3ccc(F)cc3)nc2c1`: the GI50 in the assay with NCI-H460 lung is 21.7 µM; with SF-268 CNS, 17.6 µM; in the assay on UACC-62 melanoma, 16.7 µM; with DU-145 prostate, 19.8 µM; in the assay with MCF7 breast, 20 µM; in the assay with OVCAR-3 ovarian, 16.3 µM. Also, the GI50 with HCT-15 colon was 13.4 µM; in the assay on NCI-H226 lung, 19 µM; in the assay with M14 melanoma, 15.9 µM; with A549 NSCLC, 13.5 µM. Also, the TGI stood at 65.8 µM in the assay on NCI-H460 lung; 38.9 µM in the assay with SF-268 CNS; 31.8 µM in the assay with UACC-62 melanoma; 37.7 µM in the assay with DU-145 prostate; 62.5 µM in the assay with MCF7 breast; 33.6 µM with OVCAR-3 ovarian. Moreover, the TGI came out at 27.4 µM with HCT-15 colon, 46.4 µM in the assay with NCI-H226 lung, 30.8 µM in the assay on M14 melanoma and 30.9 µM in the assay on A549 NSCLC.

As for `CC(C)(C)OC(=O)NCCNC(=O)OCc1ccccc1`, the TGI in the assay with NCI-H460 lung, with SF-268 CNS, in the assay on UACC-62 melanoma, in the assay on DU-145 prostate, in the assay with MCF7 breast and in the assay with OVCAR-3 ovarian was above 100 µM in each case. In addition, the TGI with HCT-15 colon, with NCI-H226 lung, in the assay on M14 melanoma and with A549 NSCLC was above 100 µM each time.

As for `COc1cc(C=Nc2ccc(Oc3ccc(Cl)cc3)c(Cl)c2)cc(OC)c1OC`, the TGI in the assay with NCI-H460 lung was 39.9 µM; in the assay on SF-268 CNS, 30.5 µM; with UACC-62 melanoma it was 30.4 µM; in the assay on DU-145 prostate, 38.6 µM; with MCF7 breast, 95.5 µM; in the assay with OVCAR-3 ovarian, 48.4 µM. For the same molecule, the TGI in the assay on HCT-15 colon worked out at 39.2 µM; in the assay on NCI-H226 lung, 80.9 µM; in the assay with M14 melanoma, 58.2 µM; with A549 NSCLC, 44.7 µM.

On to `O=C(O)CCCCCNC(=O)CCC(CN(CC(=O)OCc1ccccc1)CC(=O)OCc1ccccc1)N(CC(=O)OCc1ccccc1)CC(=O)OCc1ccccc1` (stereo not given), for which the TGI was 55.7 µM in the assay with NCI-H460 lung; 43.3 µM in the assay with SF-268 CNS; 30.4 µM with UACC-62 melanoma; 33.7 µM in the assay on DU-145 prostate; 36.2 µM with MCF7 breast; 33.9 µM in the assay with OVCAR-3 ovarian. In addition, the TGI came to 34.6 µM with HCT-15 colon, 54.2 µM with NCI-H226 lung, 32.3 µM in the assay with M14 melanoma and 33.2 µM in the assay on A549 NSCLC.

In the case of `CN(C)CCCn1c2c(c3ccncc3c1=O)C(=O)c1ccccc1-2`, the GI50 is 0.438 µM with NCI-H460 lung; 1.47 µM in the assay on SF-268 CNS; 1.22 µM in the assay on UACC-62 melanoma; 0.988 µM in the assay with DU-145 prostate; 0.333 µM in the assay with MCF7 breast; 1.99 µM in the assay on OVCAR-3 ovarian. Moreover, the GI50 in the assay on HCT-15 colon is 0.513 µM; in the assay on NCI-H226 lung, 0.466 µM; in the assay on M14 melanoma, 1.6 µM; with A549 NSCLC, 1 µM. Further, the TGI was determined as 3.63 µM with NCI-H460 lung; 10.7 µM in the assay on SF-268 CNS; 3.74 µM with UACC-62 melanoma; 10.6 µM in the assay on DU-145 prostate; 14 µM in the assay with MCF7 breast; 9.6 µM in the assay on OVCAR-3 ovarian. For the same molecule, the TGI stood at 11.9 µM in the assay with HCT-15 colon, 2.47 µM in the assay on NCI-H226 lung, 5.71 µM in the assay with M14 melanoma and 38.6 µM in the assay on A549 NSCLC.
